Results from patent US12077503B2, “Substituted cyclic amides and their use as herbicides” (FMC CORPORATION, priority 2015, dated 2024).

Assays:
Test in all cases: Test C preemergence
Format in all cases: in vivo
[1] = system: Galium (catchweed bedstraw, Galium aparine); conditions: for Plant response rating, Galium: scale 0 to 100, 0 no effect, 100 complete control
Excerpt: (§1) Seeds of plant species selected from blackgrass (Alopecurus myosuroides), ryegrass, Italian (Italian ryegrass, Lolium multiflorum), wheat (winter wheat, Triticum aestivum), Galium (catchweed bedstraw, Galium aparine), corn (Zea mays), crabgrass, large (large crabgrass, Digitaria sanguinalis), foxtail, giant (giant foxtail, Setaria faberii), johnsongrass (Sorghum halepense), lambsquarters (Chenopodium album), morningglory (Ipomoea coccinea), nutsedge, yellow (yellow nutsedge, Cyperus esculentus), pigweed (Amaranthus retroflexus), ragweed (common ragweed, Ambrosia elatior), soybean (Glycine max), barnyardgrass (Echinochloa crus-galli), oilseed rape (Brassica napus), waterhemp (common waterhemp, Amaranthus rudis) and velvetleaf (Abutilon theophrasti) were planted into a blend of loam soil and sand and treated preemergence with test chemicals formulated in a non-phytotoxic solvent mixture which included a surfactant.
(§2) At the same time, plants selected from these crop and weed species and also Kochia (Kochia scoparia), oat, wild (wild oat, Avena fatua), and chickweed (common chickweed, Stellaria media) were planted in pots containing Sunshine Redi-Earth® planting medium comprising spaghnum peat moss, vermiculite, starter nutrients and dolomitic limestone and treated with postemergence applications of test chemicals formulated in the same manner. Plants ranged in height from 2 to 18 cm (1- to 4-leaf stage) for postemergence treatments. Treated plants and controls were maintained in a greenhouse for 13 to 15 d, after which time all species were compared to controls and visually evaluated. Plant response ratings, summarized in Table C, are based on a scale of 0 to 100 where 0 is no effect and 100 is complete control. A dash (-) response means no test result.

[2] = system: johnsongrass (Sorghum halepense); conditions: for Plant response rating, Johnsongrass: scale 0 to 100, 0 no effect, 100 complete control
Excerpt: as §1, §2

[3] = system: velvetleaf (Abutilon theophrasti); conditions: for Plant response rating, Velvetleaf: scale 0 to 100, 0 no effect, 100 complete control
Excerpt: as §1, §2

[4] = system: pigweed (Amaranthus retroflexus); conditions: for Plant response rating, Pigweed: scale 0 to 100, 0 no effect, 100 complete control
Excerpt: as §1, §2

[5] = system: crabgrass, large (large crabgrass, Digitaria sanguinalis); conditions: for Plant response rating, Crabgrass, Large: scale 0 to 100, 0 no effect, 100 complete control
Excerpt: as §1, §2

soybean (Glycine max) = conditions: for Plant response rating, Soybean: scale 0 to 100, 0 no effect, 100 complete control
Excerpt: as §1, §2

[6] = system: ryegrass, Italian (Italian ryegrass, Lolium multiflorum); conditions: for Plant response rating, Ryegrass, Italian: scale 0 to 100, 0 no effect, 100 complete control
Excerpt: as §1, §2

[7] = system: barnyardgrass (Echinochloa crus-galli); conditions: for Plant response rating, Barnyardgrass: scale 0 to 100, 0 no effect, 100 complete control
Excerpt: as §1, §2

corn (Zea mays) = conditions: for Plant response rating, Corn: scale 0 to 100, 0 no effect, 100 complete control
Excerpt: as §1, §2

[8] = system: waterhemp (common waterhemp, Amaranthus rudis); conditions: for Plant response rating, Waterhemp: scale 0 to 100, 0 no effect, 100 complete control
Excerpt: as §1, §2

[9] = system: nutsedge, yellow (yellow nutsedge, Cyperus esculentus); conditions: for Plant response rating, Nutsedge, Yellow: scale 0 to 100, 0 no effect, 100 complete control
Excerpt: as §1, §2

[10] = system: blackgrass (Alopecurus myosuroides); conditions: for Plant response rating, Blackgrass: scale 0 to 100, 0 no effect, 100 complete control
Excerpt: as §1, §2

[11] = system: lambsquarters (Chenopodium album); conditions: for Plant response rating, Lambsquarters: scale 0 to 100, 0 no effect, 100 complete control
Excerpt: as §1, §2

[12] = system: morningglory (Ipomoea coccinea); conditions: for Plant response rating, Morningglory: scale 0 to 100, 0 no effect, 100 complete control
Excerpt: as §1, §2

[13] = system: wheat (winter wheat, Triticum aestivum); conditions: for Plant response rating, Wheat: scale 0 to 100, 0 no effect, 100 complete control
Excerpt: as §1, §2

[14] = system: oilseed rape (Brassica napus); conditions: for Plant response rating, Oilseed Rape: scale 0 to 100, 0 no effect, 100 complete control
Excerpt: as §1, §2

[15] = system: ragweed (common ragweed, Ambrosia elatior); conditions: for Plant response rating, Ragweed: scale 0 to 100, 0 no effect, 100 complete control
Excerpt: as §1, §2

[16] = system: foxtail, giant (giant foxtail, Setaria faberii); conditions: for Plant response rating, Foxtail, Giant: scale 0 to 100, 0 no effect, 100 complete control
Excerpt: as §1, §2

[17] = 31 g ai/ha, 0 is no effect, 100 is complete control

CN1CC(c2cccc(OC(F)F)c2)C(C(=O)Nc2ccc(F)cc2F)C1=O (stereo not drawn) [Compound 617]
Plant response rating (scale of 0 to 100), Galium [1, 17]: 0
Plant response rating, Galium ([1]; 62 g ai/ha): 85
Plant response rating, Galium ([1]; 125 g ai/ha): 85
Plant response rating, Galium ([1]; 250 g ai/ha): 85
Plant response rating (scale of 0 to 100), Johnsongrass [2, 17]: 25
Plant response rating, Johnsongrass ([2]; 62 g ai/ha): 30
Plant response rating, Johnsongrass ([2]; 125 g ai/ha): 65
Plant response rating, Johnsongrass ([2]; 250 g ai/ha): 75
Plant response rating (scale of 0 to 100), Velvetleaf [3, 17]: 10
Plant response rating, Velvetleaf ([3]; 62 g ai/ha): 10
Plant response rating, Velvetleaf ([3]; 125 g ai/ha): 20
Plant response rating, Velvetleaf ([3]; 250 g ai/ha): 45
Plant response rating (scale of 0 to 100), Pigweed [4, 17]: 10
Plant response rating, Pigweed ([4]; 62 g ai/ha): 20
Plant response rating, Pigweed ([4]; 125 g ai/ha): 45
Plant response rating, Pigweed ([4]; 250 g ai/ha): 75
Plant response rating (scale of 0 to 100), Crabgrass, Large [5, 17]: 95
Plant response rating, Crabgrass, Large ([5]; 62 g ai/ha): 95
Plant response rating, Crabgrass, Large ([5]; 125 g ai/ha): 100
Plant response rating, Crabgrass, Large ([5]; 250 g ai/ha): 100
Plant response rating (scale of 0 to 100), Soybean (soybean (Glycine max); [17]): 0
Plant response rating, Soybean (soybean (Glycine max); 62 g ai/ha): 10
Plant response rating, Soybean (soybean (Glycine max); 125 g ai/ha): 0
Plant response rating, Soybean (soybean (Glycine max); 250 g ai/ha): 20
Plant response rating (scale of 0 to 100), Ryegrass, Italian [6, 17]: 10
Plant response rating, Ryegrass, Italian ([6]; 62 g ai/ha): 45
Plant response rating, Ryegrass, Italian ([6]; 125 g ai/ha): 50
Plant response rating, Ryegrass, Italian ([6]; 250 g ai/ha): 90
Plant response rating (scale of 0 to 100), Barnyardgrass [7, 17]: 85
Plant response rating, Barnyardgrass ([7]; 62 g ai/ha): 90
Plant response rating, Barnyardgrass ([7]; 125 g ai/ha): 95
Plant response rating, Barnyardgrass ([7]; 250 g ai/ha): 95
Plant response rating (scale of 0 to 100), Corn (corn (Zea mays); [17]): 0
Plant response rating, Corn (corn (Zea mays); 62 g ai/ha): 40
Plant response rating, Corn (corn (Zea mays); 125 g ai/ha): 75
Plant response rating, Corn (corn (Zea mays); 250 g ai/ha): 80
Plant response rating (scale of 0 to 100), Waterhemp [8, 17]: 20
Plant response rating, Waterhemp ([8]; 62 g ai/ha): 25
Plant response rating, Waterhemp ([8]; 125 g ai/ha): 70
Plant response rating, Waterhemp ([8]; 250 g ai/ha): 80
Plant response rating (scale of 0 to 100), Nutsedge, Yellow [9, 17]: 0
Plant response rating, Nutsedge, Yellow ([9]; 62 g ai/ha): 0
Plant response rating, Nutsedge, Yellow ([9]; 125 g ai/ha): 20
Plant response rating, Nutsedge, Yellow ([9]; 250 g ai/ha): 35
Plant response rating (scale of 0 to 100), Blackgrass [10, 17]: 20
Plant response rating, Blackgrass ([10]; 62 g ai/ha): 20
Plant response rating, Blackgrass ([10]; 125 g ai/ha): 85
Plant response rating, Blackgrass ([10]; 250 g ai/ha): 90
Plant response rating (scale of 0 to 100), Lambsquarters [11, 17]: 30
Plant response rating, Lambsquarters ([11]; 62 g ai/ha): 55
Plant response rating, Lambsquarters ([11]; 125 g ai/ha): 70
Plant response rating, Lambsquarters ([11]; 250 g ai/ha): 80
Plant response rating (scale of 0 to 100), Morningglory [12, 17]: 0
Plant response rating, Morningglory ([12]; 62 g ai/ha): 0
Plant response rating, Morningglory ([12]; 125 g ai/ha): 25
Plant response rating, Morningglory ([12]; 250 g ai/ha): 40
Plant response rating (scale of 0 to 100), Wheat [13, 17]: 0
Plant response rating, Wheat ([13]; 62 g ai/ha): 15
Plant response rating, Wheat ([13]; 125 g ai/ha): 45
Plant response rating, Wheat ([13]; 250 g ai/ha): 80
Plant response rating (scale of 0 to 100), Oilseed Rape [14, 17]: 30
Plant response rating, Oilseed Rape ([14]; 62 g ai/ha): 85
Plant response rating, Oilseed Rape ([14]; 125 g ai/ha): 90
Plant response rating, Oilseed Rape ([14]; 250 g ai/ha): 90
Plant response rating (scale of 0 to 100), Ragweed [15, 17]: 10
Plant response rating, Ragweed ([15]; 62 g ai/ha): 10
Plant response rating, Ragweed ([15]; 125 g ai/ha): 40
Plant response rating, Ragweed ([15]; 250 g ai/ha): 70
Plant response rating (scale of 0 to 100), Foxtail, Giant [16, 17]: 90
Plant response rating, Foxtail, Giant ([16]; 62 g ai/ha): 90
Plant response rating, Foxtail, Giant ([16]; 125 g ai/ha): 95
Plant response rating, Foxtail, Giant ([16]; 250 g ai/ha): 98
